The record followed here is patent publication US10632174B2, “B7-H1 fusion polypeptides for treating and preventing organ failure” (Fraunhofer-Gesellschaft zur Förderung der angewandten …, priority 2015, dated 2020).

Assay [1] has as its system B7-H1 expression in Hepa1-6 cells. In words: B7-H1 mRNA (qPCR) and protein (Western) expression in Hepa1-6 cells. The class given is cell-based, murine. Particulars: 100 ng/ml LPS with 10 mM NAC, FIG. 7 vs FIG. 3B. On the procedure: FIG. 3: B7-H1 expression in Hepa1-6 cells following LPS or LTA stimulation. Hepa1-6 cells were stimulated for the indicated times with 100 ng/ml LPS or 100 ng/ml LTA. Afterwards cells were harvested and mRNA was isolated or protein lysates were prepared as described in Materials and Methods. mRNA expression of B7-H1 (A) was analyzed by quantitative PCR. 18s rRNA was used as a house keeping gene. (B) B7-H1 protein expression following LPS stimulation was determined by Western analysis. All experiments were performed at least five times. Data represent the mean±SD (*p<0.5) or show a representative blot.
FIG. 7: B7-H1 expression was restored adding the GSH precursor N-acetyl-cysteine (NAC). Hepa1-6 cells were stimulated for the indicated times with 100 ng/ml LPS with 10 mM NAC. Afterwards cells were harvested and protein lysates were prepared as described in Materials and Methods. B7-H1 protein expression was determined by Western analysis. All experiments were performed at least five times. […]
LPS and LTA act via different Toll-like receptors (TLRs) on target cells i.e. TLR2 for LTA and TLR4 for LPS. […] To investigate whether a ROS-dependent mechanism was responsible for the reduction of B7-H1, ROS formation was determined in Hepa 1-6 cells treated with LPS alone or in combination with N-acetylcysteine (NAC). […]
B7-H1, B7-DC, PD-1, Fas and EGFP expression were analyzed by Western analysis. […]
For orientation: In qPCR the cycle at which signal appears reflects the starting amount.

For assay [2], the system named is B7-H1 surface expression in Hepa1-6 cells (Nox4 inhibition). In words: B7-H1 surface expression in Hepa1-6 cells by FACS. The class given is cell-based, murine. The note with it: 10 μM, 24 h, no further treatment, FIG. 8A. On the procedure:
FIG. 8: Inhibition of Nox4 enhances B7-H1 expression. Hepa1-6 cells were treated with the Nox4-specific inhibitor GKT137831 [10 μM] for 24 h. Afterwards, cells were harvested and B7-H1 expression was determined by FACS analysis. A quantification of five independent experiments is provided in (A). In liver homogenates of global NOX4 knockout mice B7-H1 protein expression was examined by Western blotting (B). A representative blot is shown. A quantification of B7-H1 expression (WT vs. NOX4-KO; n=5/5; *p<0.5) is provided in (C). B7-H1 expression on hepatocytes following polymicrobial sepsis initiation by cecal ligation and puncture (CLP) was studied in liver single cell suspensions by FACS-analysis gating for CD45-, i.e. non-immune cells as described in Materials and Methods. A quantification is shown (D), (sham vs. CLP, WT sham is set as 1; n=5/5/5/5; *p<0.5). Liver damage in global NOX4 knockout mice following CLP operation is assessed by looking at ALT/AST release into the serum, which is determined with a Reflotron Plus […] analyzer (E) (NOX4-KO; sham vs. CLP; n=5/5, *p<0.5). […]
All antibodies and secondary reagents were titrated to optimal concentrations. […] Surface expression of B7-H1 and B7-DC on the surface of primary hepatocytes was determined by FACS analysis, using anti-B7-H-PE or anti-B7-DC-PE. […]
(Flow cytometry measures light scatter and fluorescence of single cells or particles in a stream.)

Consider `CC(=O)N[C@@H](CS)C(=O)O` [NAC, N-acetylcysteine], for which the B7-H1 protein expression entry in assay [1] was “restored expression of B7-H1”.
Take `CN(C)c1cccc(-c2c3c(=O)n(-c4ccccc4Cl)[nH]c3cc(=O)n2C)c1` [GKT137S31]: in assay [2], the “increase of B7-H1 surface expression” value was “roughly 50%”.
